From PMC8065421, “Repurposing Drugs for Mayaro Virus: Identification of EIDD-1931, Favipiravir and Suramin as Mayaro Virus Inhibitors” (Microorganisms, 2021)
Where two headings read alike, the source gives them in different places.

Experiments:
[1] = test system: MAYV; assay: Antiviral CPE reduction assay; format: cell-based, Mayaro virus (MAYV) strain TC625; settings: for Activity against MAYV (inhibition of MAYV-induced CPE): MOI 0.01
[2] = Cytotoxicity assay on uninfected cells; settings: African green monkey
[3] = test system: MAYV; format: cell-based, Mayaro virus (MAYV) strain TC625; settings: for decrease in relative infectivity (ratio infectious virus vs. viral RNA): supernatant
[4] = test system: MAYV; settings: virus yield assay, cited from earlier work
[5] = test system: Vero cells; assay: Cytotoxicity assay on uninfected cells
[6] = test system: CHIKV; settings: against CHIKV; cited from earlier work
[7] = in vitro; settings: African green monkey
[8] = test system: MAYV; assay: Delay of treatment assay; format: cell-based, Mayaro virus (MAYV) strain TC625; settings: for reduction of intracellular RNA by time of addition: EIDD-1931 25 µM, favipiravir 300 µM, suramin 500 µM, qRT-PCR

Structure (SMILES)	EC50 ([1]; Mayaro virus, Vero, 72 h)	Activity against MAYV (inhibition of MAYV-induced CPE) ([1]; Vero cells)	CC50 at 3 days [2]	decrease in infectious virus [3]	reduction in viral RNA and infectious virus content with increasing concentrations [3]	reduction of intracellular RNA by time of addition ([8]; […], 10 h pi)	further results
C[C@@]1(O)[C@H](O)[C@@H](CO)O[C@H]1n1ccc2c(N)ncnc21 [7DMA, 7-Deaza-2′-C-methyladenosine]	> 60 µM	not able to inhibit MAYV	> 600 µM	–	–	–	–
Nc1ncnc2c([C@@H]3N[C@H](CO)[C@@H](O)[C@H]3O)c[nH]c12 [Galidesivir]	> 100 µM	not able to inhibit MAYV	238 ± 36 µM	–	–	–	–
C[C@@]1(O)[C@H](O)[C@@H](CO)O[C@H]1n1ccc(N)nc1=O [2’CMC, 2′-C-methylcytidine]	> 20 µM	not able to inhibit MAYV	167 ± 7 µM	–	–	–	–
NC(=O)c1ncn([C@@H]2O[C@H](CO)[C@@H](O)[C@H]2O)n1 [Ribavirin, 1-(β-D-ribofuranosyl)-1H-1,2,4-triazole-3-carboxamide]	> 200 µM	not active against MAYV	250 ± 81 µM	–	–	–	blocking MAYV infectivity [3]: not effective; EC50 ([4]; strain TR4675, MOI 0.05): 62.5 µM; EC50 ([4]; strain TR4675, MOI 0.1): 255 µM; signs of toxicity determined microscopically ([5]; concentrations higher than 200 µM): signs of toxicity were determined microscopically at higher concentrations
CCOC(=O)c1c(CSc2ccccc2)n(C)c2cc(Br)c(O)c(CN(C)C)c12 [Arbidol]	> 60 µM	did not show activity against MAYV	> 100 µM	–	–	–	EC50 [6]: 12 µM
CCC(CC)COC(=O)[C@H](C)N[P@](=O)(OC[C@H]1O[C@@](C#N)(c2ccc3c(N)ncnn23)[C@H](O)[C@@H]1O)Oc1ccccc1 [Remdesivir]	> 100 µM	not able to inhibit MAYV	–	–	–	–	CC50 at 3 days [7]: 297 ± 101 µM
NC(=O)c1nc(F)c[nH]c1=O [Favipiravir]	79 ± 4 µM	–	2840 ± 86 µM	~ 8 log10	dose-dependent reduction	only when added at early time points (2 h prior to infection and 0 h pi)	inhibitory effect in virus yield assay ([3]; 75 µM): inhibitory effect was still observed; decrease in relative infectivity (ratio infectious virus vs. viral RNA) ([3]; starting from 75 µM): ~ 100 fold; reduction of viral titers ([8]; 300 µM, added until 2 h pi, […], 10 h pi): 2–3 log10
CCN(CC)CCCC(C)Nc1ccnc2cc(Cl)ccc12 (centres unmarked) [Chloroquine]	> 200 µM	did not show activity against MAYV	–	–	–	–	EC50 [6]: ~10 µM
O=c1nc(NO)ccn1[C@@H]1O[C@H](CO)[C@@H](O)[C@H]1O [EIDD-1931, β-D-N^4-hydroxycytidine]	–	–	–	~ 8 log10	dose-dependent reduction	still resulted in a reduction when added until 2 h pi	EC50 ([1]; Vero cells, MAYV MOI 0.01, day 3 pi, MTS/PMS read-out): 1.6 ± 0.5 µM; inhibitory effect in virus yield assay ([3]; 3.1 µM): inhibitory effect was still observed; decrease in relative infectivity (ratio infectious virus vs. viral RNA) ([3]; starting from 6 µM): ~ 1000 fold; activity on infectious virus ([8]; 25 µM, added at 6 h pi): modest activity; decrease in infectious virus ([8]; 25 µM, added until 4 h pi, […], 10 h pi): 2–3 log10; CC50 ([5]; uninfected Vero cells, day 3, microscopically or MTS/PMS): > 100 µM
Cc1ccc(C(=O)Nc2ccc(S(=O)(=O)O)c3cc(S(=O)(=O)O)cc(S(=O)(=O)O)c23)cc1NC(=O)c1cccc(NC(=O)Nc2cccc(C(=O)Nc3cc(C(=O)Nc4ccc(S(=O)(=O)O)c5cc(S(=O)(=O)O)cc(S(=O)(=O)O)c45)ccc3C)c2)c1 [Suramin]	124 ± 26 µM	–	–	~ 5 log10	dose-dependent reduction	only when added at early time points (2 h prior to infection and 0 h pi)	relative infectivity of MAYV ([3]; all concentrations with the exception of the highest tested (500 µM)): not affected; decrease of infectious virus titers [8]: ~ −2 log10; CC50 at 3 days [7]: > 2000 µM
